The text below walks through data of PubChem BioAssay (NCI).

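Grown in 96-well plates, cells were treated for 48 hours with each compound at five concentrations. Insufficient inhibition: endpoint recorded as highest concentration tested. GI50 = concentration required for 50% inhibition of growth. TGI marks complete inhibition of growth.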

Assay in all cases: inhibition of tumour cell growth, NCI panel, 48 h
Assay [1] concerns TK-10 renal.
In assay [2] the test system is PC-3 prostate.
Assay [3] has as its system SK-MEL-2 melanoma.
The subject of assay [4] is COLO 205 colon.
The test system of assay [5] is SF-268 CNS.
Assay [6] has as its system UACC-257 melanoma.
Assay [7] relates to NCI-H226 lung.
Assay [8] has as its system HL-60(TB) leukemia.
Assay [9] deals with HT29 colon.
Assay [10] concerns HOP-92 NSCLC.

For the molecule `C=C1C(=O)O[C@H]2[C@H]1CC/C(COC(=O)NCCc1ccc(Br)cc1)=C\CC[C@@]1(C)O[C@@H]21`, the GI50 in [1] is 1.73 µM; in assay [2], 1.73 µM; in [3], 1.58 µM; in assay [4], 1.82 µM; in [5], 1.56 µM; in assay [6], 1.63 µM. In addition, the GI50 in [7] was 1.72 µM; in [8], 1.06 µM; in assay [9] it was 1.32 µM; in [10], 1.28 µM. The TGI in assay [1] worked out at 3.12 µM; in assay [2], 3.32 µM; in assay [3], 3.17 µM; in assay [4] it was 3.57 µM; in assay [5] it was 3.19 µM; in assay [6], 3.09 µM. The TGI in assay [7] amounted to 3.37 µM; in [8] it was 3.97 µM; in assay [9], 3.38 µM; in assay [10] it was 2.77 µM.

Take `CC1(/C=C/c2ccc(-c3ccccc3)cc2)CCn2cnc3ncnc(c32)N1O` (stereo not given): the GI50 is 0.492 µM in assay [1]; 0.57 µM in assay [2]; 1.42 µM in assay [3]; 0.326 µM in [4]; 0.405 µM in assay [5]; 0.445 µM in assay [6]. Moreover, the GI50 is 0.571 µM in [7], 0.318 µM in [8], 0.526 µM in assay [9] and 3.72 µM in assay [10]. Besides, the TGI was above 100 µM in assay [1]; 34.8 µM in assay [2]; 41.2 µM in [3]; 32.8 µM in [4]; 15.8 µM in assay [5]; 25.3 µM in assay [6]. Also, the TGI in assay [7] was determined as 20.2 µM; in assay [8], 1.81 µM; in [9], 41.7 µM; in assay [10], 65.6 µM.

In the case of `Nc1cc2c3ccccc3ccc2c2ccccc12`, the GI50 is above 100 µM in [1]; 7.78 µM in [2]; above 100 µM in assay [3]; above 100 µM in assay [4]; above 100 µM in assay [5]; above 100 µM in assay [6]. Further, the GI50 in assay [7] was above 61.4 µM; in assay [8], above 68.6 µM; in assay [9] it was above 100 µM; in [10], above 100 µM. Moreover, the TGI in [1], in [2], in [3], in [4], in [5] and in [6] was above 100 µM in each case. For the same molecule, the TGI in assay [7], in assay [8], in assay [9] and in assay [10] was above 100 µM each time.
